Data as given in patent US20230323373A1, “SPRAYABLE CELL-PENETRATING PEPTIDES FOR SUBSTANCE DELIVERY IN PLANTS” (BASF Plant Science Company GmbH, priority 2020, published 2023).
Square brackets hold non-standard residues; d marks the D form. Ends that are not written are not given here.

Tests used:
[1] = system: soybean leaves; assay: Translocation of sprayed TAMRA-CPPs into soybean leaves (fluorescence imaging); format: in vivo, Glycine max; conditions: for cell penetrating efficiency: soybean leaves, in general
Experimental: Seeds of soybean (Glycine max) cultivars Enrei, William-82, and Peking, were germinated between germination papers that has been moistened with tap water. Then the seeds with papers were placed in a plastic bag and incubated in a growth chamber under 18 hours light/6 hours dark at 26° C. for three days. One and a quarter tea spoon of Multicoat 4 was mixed with 2 L of autoclaved sand, which was then moistened with tap water. Three days old soybean seedlings were then transplanted into containers filled with moist sand mix and incubated in the same growth chamber. Leaves from 5 weeks old plants were used for experiments.
Soybean leaves are different in both architecture and leaf chemical components. We further examined the translocation efficiency of highly efficient native CPP sequences in soybean leaves. Leaves from 5 weeks old plants were used for the experiment. Solutions containing 1.0 mg/mL of natural TAMRA-CPP; TAMRA-BP100, TAMRA-KH9, TAMRA-R9, and TAMRA-D-R9 were sprayed on soybean leaves of 3 different cultivars (Enrei, Peking, and William-82) and incubated for 30 min, 90 min, and 150 min (FIG. 3A). The fluorescence imaging and image analysis were conducted to determine the translocation efficiency of these CPPs to plant leaves. […] Different soybean cultivars responded differently to the translocation of CPPs to plant cells.
We tried to determine the efficiency of artificial CPPs containing Aib to soybean leaves using spraying. KAibA, KAibK, and KAibG were synthesized and labelled with TAMRA as described in Example 1. The solutions containing 1 mg/mL of these artificial TAMRA-CPPs were sprayed to fully expanded leaves of 5-weeks old soybean cultivar Enrei and the fluorescence imaging was carried out at 30 min, 90 min, and 150 min after spraying. […] However, the average fluorescent intensity in TAMRA-KAibA-treated soybean leaves was lower than that previously achieved by TAMRA-D-R9 (FIG. 3B and C).

[2] = system: Arabidopsis leaf; assay: Translocation of sprayed TAMRA-CPPs into Arabidopsis leaf cells (CLSM fluorescence); format: in vivo, Arabidopsis thaliana; conditions: for cell penetrating efficiency: epidermal cells, TAMRA-labelled CPP 1 mg/L in water, compared with KH9 and R9
Description: Cell-penetrating peptides (CPPs), also called protein transduction domains, are short peptides that facilitate the transport of cargo molecules through membranes to gain access to the cells. In many cases, CPPs are coupled to cargo molecules through covalent conjugation, forming CPP-cargo complexes. To date, DNA, RNA, nanomaterials and proteins such as antibodies were reported as cargo molecules. Most studies of the complex of CPPs and protein have contributed to the applications in mammalian cells, whereas only very limited studies have focused on plant cells. […] The plant cells are mainly containing cellulose, hemicellulose and pectin. […] BP100 (KKLFKKILKYL—SEQ ID NO: 7) is an amphiphilic peptide and has CPP function. KH9 (KHKHKHKHKHKHKHKHKH—SEQ ID NO: 10), R9 (RRRRRRRRR SEQ ID NO: 8), and D-R9 (rrrrrrrrr, D-form of R9 - SEQ ID NO: 9) are peptides containing both CPP and cationic biomolecule binding functions. BP100(KH)9 ([…]—SEQ ID NO: 11) and BP100CH7 ([…]—SEQ ID NO: 12) are fusion peptides containing CPP and cationic sequences which are designed as stimulus-response peptides and could release the cargo molecules (peptides, protein, RNA, DNA) into the cytoplasm. KAibA(KH)9, K-alpha-aminoisobutyric acid (AibA)-AKHKHKHKHKHKHKHKHKH, and KAibA(D-R9), K-alpha-aminoisobutyric acid (AibA)-Arrrrrrrrr are synthetic peptides and containing both CPP and cationic biomolecule binding functions. KAibA (U.S. Ser. No. 16/832,749) was chemoenzymatically synthesized using the polymerization reaction (ACS Biomater. Sci. Eng. 2020, 6, 6, 3287-3298). TAMRA-CPPs are CPPs that labeled by fluorescent molecule 5-carboxytetramethylrhodamine (TAMRA) at the C-terminal end and were used for optimization of various conditions. For the labelling of CPP with TAMRA, the amino acids in Boc-CPPs were deprotected using tri-fluoroacetic acid (TFA). A solution of tetramethylrhodamine-5-isothiocyanate in dimethyl sulfoxide (DMSO) was added to CPP solutions and kept stirring at 25° C. for 14 h. The solution was centrifuged at maximum speed at 4° C. for 60 minutes and the precipitate was washed with Milli-Q water. After lyophilizing, a pink solid was obtained. Dried precipitate of TAM RA-CPP was re-suspended with Milli-q and the TAMRA-CPP solution was kept at 1.0 mg/mL concentration in −80° C. Plasmid DNA that contains expression cassette of reporter gene such as GUS (SEQ ID NO: 1), GFP (SEQ ID NO: 2), DsRed (SEQ ID NO: 3), and Renilla luciferase (Rluc—SEQ ID NO: 4) was used to detect successful delivery into plant cells. […]
Each TAMRA-CPP was adjusted as concentration at 1 mg/L in water. […] Leaf surface was washed three times with water after 30, 90 and 150 min post spraying, and the intensity of fluorescence was measured by CLSM imaging analysis (FIG. 2A). […]

Substance	cell penetrating effect ([1]; cultivar Peking)	cell penetrating efficiency [1]	depth of penetration and persistence in tissue ([2]; Arabidopsis leaf, summary)	cell penetrating efficiency [2]	penetrating efficiency ([2]; mesophyll cells)
rrrrrrrrr ([dR][dR][dR][dR][dR][dR][dR][dR][dR]) [D-R9]	most efficient cell penetrating effect	higher cell penetrating efficiency	able to penetrate deep inside of the tissue and stay longer without degradation	higher cell penetrating efficiency	highest penetrating efficiency
KKLFKKILKYL (BP100)		higher cell penetrating efficiency		higher cell penetrating efficiency	
